Structures are written as SMILES. Where only a bound is given, the exact number is not on record here.

T1 sequence (Q13535 whole entry): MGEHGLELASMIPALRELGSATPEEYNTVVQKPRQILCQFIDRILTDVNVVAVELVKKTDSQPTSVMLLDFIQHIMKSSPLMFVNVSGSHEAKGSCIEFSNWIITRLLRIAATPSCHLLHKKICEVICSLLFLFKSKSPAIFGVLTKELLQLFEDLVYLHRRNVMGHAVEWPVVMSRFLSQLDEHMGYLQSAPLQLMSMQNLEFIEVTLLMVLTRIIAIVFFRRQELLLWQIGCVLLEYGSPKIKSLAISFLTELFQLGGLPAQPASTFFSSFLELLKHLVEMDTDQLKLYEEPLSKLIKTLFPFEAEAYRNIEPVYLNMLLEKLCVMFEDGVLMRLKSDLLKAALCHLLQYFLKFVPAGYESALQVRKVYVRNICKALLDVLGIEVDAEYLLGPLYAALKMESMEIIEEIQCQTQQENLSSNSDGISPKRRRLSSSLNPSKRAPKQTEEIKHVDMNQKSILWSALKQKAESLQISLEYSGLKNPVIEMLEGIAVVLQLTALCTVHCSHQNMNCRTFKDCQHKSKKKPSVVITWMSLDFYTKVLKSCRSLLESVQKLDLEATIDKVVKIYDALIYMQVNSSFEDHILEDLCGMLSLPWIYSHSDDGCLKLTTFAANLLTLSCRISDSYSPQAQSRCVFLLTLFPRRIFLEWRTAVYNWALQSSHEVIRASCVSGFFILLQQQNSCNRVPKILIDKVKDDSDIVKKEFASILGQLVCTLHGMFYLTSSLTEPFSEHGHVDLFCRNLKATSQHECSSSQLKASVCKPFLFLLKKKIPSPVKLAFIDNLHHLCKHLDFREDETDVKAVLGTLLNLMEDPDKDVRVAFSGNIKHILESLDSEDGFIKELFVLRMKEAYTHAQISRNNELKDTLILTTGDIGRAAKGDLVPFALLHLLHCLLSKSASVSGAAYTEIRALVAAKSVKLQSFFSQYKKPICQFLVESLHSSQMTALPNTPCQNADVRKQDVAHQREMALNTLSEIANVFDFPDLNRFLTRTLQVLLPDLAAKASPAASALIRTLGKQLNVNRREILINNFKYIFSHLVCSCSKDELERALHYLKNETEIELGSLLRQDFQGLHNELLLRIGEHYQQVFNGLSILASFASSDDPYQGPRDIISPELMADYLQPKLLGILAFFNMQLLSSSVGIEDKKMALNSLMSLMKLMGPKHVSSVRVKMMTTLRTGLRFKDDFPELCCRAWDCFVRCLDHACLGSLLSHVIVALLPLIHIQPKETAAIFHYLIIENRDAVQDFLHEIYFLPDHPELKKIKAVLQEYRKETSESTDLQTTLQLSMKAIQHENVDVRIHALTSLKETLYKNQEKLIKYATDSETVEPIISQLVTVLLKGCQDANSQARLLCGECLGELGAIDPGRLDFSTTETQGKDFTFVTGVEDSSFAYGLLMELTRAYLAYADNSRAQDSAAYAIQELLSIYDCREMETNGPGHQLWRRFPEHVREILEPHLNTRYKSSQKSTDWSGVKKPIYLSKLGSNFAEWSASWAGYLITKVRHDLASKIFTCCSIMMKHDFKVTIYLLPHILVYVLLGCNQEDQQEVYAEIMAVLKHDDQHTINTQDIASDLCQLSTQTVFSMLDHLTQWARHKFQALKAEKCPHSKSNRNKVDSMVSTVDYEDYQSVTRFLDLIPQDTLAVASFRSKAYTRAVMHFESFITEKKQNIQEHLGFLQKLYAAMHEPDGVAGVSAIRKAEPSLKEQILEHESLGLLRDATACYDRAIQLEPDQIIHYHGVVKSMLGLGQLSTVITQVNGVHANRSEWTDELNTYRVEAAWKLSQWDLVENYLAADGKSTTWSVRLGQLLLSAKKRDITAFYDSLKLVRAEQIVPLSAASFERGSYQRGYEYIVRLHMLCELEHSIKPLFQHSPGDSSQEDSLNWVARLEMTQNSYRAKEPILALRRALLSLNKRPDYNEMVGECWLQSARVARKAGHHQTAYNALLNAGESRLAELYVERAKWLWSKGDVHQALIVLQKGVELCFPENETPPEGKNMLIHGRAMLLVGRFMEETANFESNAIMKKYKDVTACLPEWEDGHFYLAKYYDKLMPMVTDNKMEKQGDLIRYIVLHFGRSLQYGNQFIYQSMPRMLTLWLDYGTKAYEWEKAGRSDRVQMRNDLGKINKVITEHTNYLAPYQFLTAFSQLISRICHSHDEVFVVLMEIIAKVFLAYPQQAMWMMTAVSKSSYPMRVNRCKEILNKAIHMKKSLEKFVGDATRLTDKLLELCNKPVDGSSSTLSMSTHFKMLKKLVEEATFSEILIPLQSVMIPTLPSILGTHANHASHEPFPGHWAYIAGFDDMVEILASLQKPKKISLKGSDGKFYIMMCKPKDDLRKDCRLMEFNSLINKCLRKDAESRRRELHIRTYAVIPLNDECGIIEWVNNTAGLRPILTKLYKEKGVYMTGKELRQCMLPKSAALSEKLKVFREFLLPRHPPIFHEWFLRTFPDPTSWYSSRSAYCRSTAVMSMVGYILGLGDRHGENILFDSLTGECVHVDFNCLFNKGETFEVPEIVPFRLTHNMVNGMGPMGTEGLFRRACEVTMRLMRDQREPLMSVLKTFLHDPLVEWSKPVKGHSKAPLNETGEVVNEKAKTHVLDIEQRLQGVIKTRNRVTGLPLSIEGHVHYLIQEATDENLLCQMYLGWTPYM

One assay addresses T1, ATR kinase (full-length ATR) (Homo sapiens, UniProt Q13535).
T1 construct: Assays were carried out at 25° C. in the presence of 5 nM full-length ATR
The assay can be described thus: ATR Inhibition Assay (radioactive-phosphate incorporation). The class given is biochemical.
Settings: not given
The protocol:
Compounds were screened for their ability to inhibit ATR kinase using a radioactive-phosphate incorporation assay. Assays were carried out in a mixture of 50 mM Tris/HCl (pH 7.5), 10 mM MgCl2 and 1 mM DTT. Final substrate concentrations were 10 μM [y-33P]ATP (3mCi 33P ATP/mmol ATP, Perkin Elmer) and 800 μM target peptide ([…]).
Assays were carried out at 25° C. in the presence of 5 nM full-length ATR. An assay stock buffer solution was prepared containing all of the reagents listed above, with the exception of ATP and the test compound of interest. […] The plate was pre-incubated for 10 minutes at 25° C. and the reaction initiated by addition of 15 μL [y-33P]ATP (final concentration 10 μM).
The reaction was stopped after […] by the addition of 30 μL 0.1M phosphoric acid containing 2 mM ATP. A multiscreen phosphocellulose filter 96-well plate (Millipore, Cat no. MAPHN0B50) was pretreated with 100 μL 0.2M phosphoric acid prior to the addition of 45 μL of the stopped assay mixture. The plate was washed with 5×200 μL 0.2M phosphoric acid.
After removing mean background values for all of the data points, Ki(app) data were calculated from non-linear regression analysis of the initial rate data using the Prism software package (GraphPad Prism version 3.0cx for Macintosh, GraphPad Software, San Diego Calif., USA).
As for `CC(C)S(=O)(=O)c1ccc(-c2cnc3[nH]cc(C(=O)N4CCC5(CC4)OCCO5)c3n2)cc1` [Compound I-128, 1,4-dioxa-8-azaspiro[4.5]decan-8-yl-[2-(4-isopropylsulfonylphenyl)-5H-pyrrolo[2,3-b]pyrazin-7-yl]methanone], the Ki was less than 100 nM.

The same assay, now with this note: Ki(app); 5 nM full-length ATR, 10 μM ATP, 800 μM target peptide, 25° C.; class symbols; read-out: ATR Inhibition Ki.
As to `CC(C)S(=O)(=O)c1ccc(-c2cnc3[nH]cc(C(=O)NC[C@@H](O)c4ccccc4)c3n2)cc1` [Compound I-62, N-[(2S)-2-hydroxy-2-phenyl-ethyl]-2-(4-isopropylsulfonylphenyl)-5H-pyrrolo[2,3-b]pyrazine-7-carboxamide], the Ki is less than 100 nM.

For the compound `CC(C)S(=O)(=O)c1ccc(-c2cnc3[nH]cc(C(=O)N4CCCCC4CO)c3n2)cc1` (stereo not drawn) [Compound I-115, [2-(hydroxymethyl)-1-piperidyl]-[2-(4-isopropylsulfonylphenyl)-5H-pyrrolo[2,3-b]pyrazin-7-yl]methanone], the Ki fell in the range of 500 to 5000 nM.

Turning to `CC(C)S(=O)(=O)c1ccc(-c2cnc3[nH]cc(C(=O)NCCc4ccccn4)c3n2)cc1` [Compound I-61, 2-(4-isopropylsulfonylphenyl)-N-[2-(2-pyridyl)ethyl]-5H-pyrrolo[2,3-b]pyrazine-7-carboxamide], the Ki was less than 100 nM.

On to `CC(C)S(=O)(=O)c1ccc(-c2cnc3[nH]cc(C(=O)NCC4CCC4)c3n2)cc1` [Compound I-29, N-(cyclobutylmethyl)-2-(4-isopropylsulfonylphenyl)-5H-pyrrolo[2,3-b]pyrazine-7-carboxamide], for which the Ki was less than 100 nM.

For `CC(C)S(=O)(=O)c1ccc(-c2cnc3[nH]cc(C(=O)NC4CCOc5ccccc54)c3n2)cc1` (stereo not drawn) [Compound I-86, N-chroman-4-yl-2-(4-isopropylsulfonylphenyl)-5H-pyrrolo[2,3-b]pyrazine-7-carboxamide], the Ki is less than 100 nM.

In the case of `CC(C)S(=O)(=O)c1ccc(-c2cnc3[nH]cc(C(=O)N4CCC(O)C4)c3n2)cc1` (stereo not drawn) [Compound I-28, (3-hydroxypyrrolidin-1-yl)-[2-(4-isopropylsulfonylphenyl)-5H-pyrrolo[2,3-b]pyrazin-7-yl]methanone], the Ki is 500 to 5000 nM.

Consider `CC(C)S(=O)(=O)c1ccc(-c2cnc3[nH]cc(C(=O)Nc4ccncc4)c3n2)cc1` [Compound I-6, 2-(4-isopropylsulfonylphenyl)-N-(4-pyridyl)-5H-pyrrolo[2,3-b]pyrazine-7-carboxamide], for which the Ki lay in the range of 100 to 500 nM.

`CC(C)S(=O)(=O)c1ccc(-c2cnc3[nH]cc(C(=O)NC(CO)c4ccccc4)c3n2)cc1` (stereo not drawn) [Compound I-42, N-(2-hydroxy-1-phenyl-ethyl)-2-(4-isopropylsulfonylphenyl)-5H-pyrrolo[2,3-b]pyrazine-7-carboxamide]: the Ki was less than 100 nM.

As to `CC(C)S(=O)(=O)c1ccc(-c2cnc3[nH]cc(C(=O)NCc4cccc(F)c4)c3n2)cc1` [Compound I-75, N-[(3-fluorophenyl)methyl]-2-(4-isopropylsulfonylphenyl)-5H-pyrrolo[2,3-b]pyrazine-7-carboxamide], the Ki was in the range of 100 to 500 nM.

In the case of `CCN(C(=O)c1c[nH]c2ncc(-c3ccc(S(=O)(=O)C(C)C)cc3)nc12)C1CCCCC1` [Compound I-95, N-cyclohexyl-N-ethyl-2-(4-isopropylsulfonylphenyl)-5H-pyrrolo[2,3-b]pyrazine-7-carboxamide], the Ki was 500 to 5000 nM.

Consider `CC(C)S(=O)(=O)c1ccc(-c2cnc3[nH]cc(C(=O)NOc4ccccc4)c3n2)cc1` [Compound I-100, 2-(4-isopropylsulfonylphenyl)-N-phenoxy-5H-pyrrolo[2,3-b]pyrazine-7-carboxamide], for which the Ki is less than 100 nM.

As to `Cc1cccc(CNC(=O)c2c[nH]c3ncc(-c4ccc(S(=O)(=O)C(C)C)cc4)nc23)c1Cl` [Compound I-66, N-[(2-chloro-3-methyl-phenyl)methyl]-2-(4-isopropylsulfonylphenyl)-5H-pyrrolo[2,3-b]pyrazine-7-carboxamide], the Ki was less than 100 nM.

With `CCC[C@@H](CO)NC(=O)c1c[nH]c2ncc(-c3ccc(S(=O)(=O)C(C)C)cc3)nc12` [Compound I-112, N-[(1S)-1-(hydroxymethyl)butyl]-2-(4-isopropylsulfonylphenyl)-5H-pyrrolo[2,3-b]pyrazine-7-carboxamide], the Ki was less than 100 nM.

Consider `CC(C)S(=O)(=O)c1ccc(-c2cnc3[nH]cc(C(=O)NCc4ccccn4)c3n2)cc1` [Compound I-52, 2-(4-isopropylsulfonylphenyl)-N-(2-pyridylmethyl)-5H-pyrrolo[2,3-b]pyrazine-7-carboxamide], for which the Ki fell in the range of 100 to 500 nM.

Take `CC(C)S(=O)(=O)c1ccc(-c2cnc3[nH]cc(C(=O)NCCN(C)C)c3n2)cc1` [Compound I-21, N-(2-dimethylaminoethyl)-2-(4-isopropylsulfonylphenyl)-5H-pyrrolo[2,3-b]pyrazine-7-carboxamide]: the Ki lay in the range of 500 to 5000 nM.

For the compound `CC(C)S(=O)(=O)c1ccc(-c2cnc3[nH]cc(C(=O)NC4(CO)CCCC4)c3n2)cc1` [Compound I-44, N-[1-(hydroxymethyl)cyclopentyl]-2-(4-isopropylsulfonylphenyl)-5H-pyrrolo[2,3-b]pyrazine-7-carboxamide], the Ki was 100 to 500 nM.

The same assay, now with this note: Ki(app); 5 nM full-length ATR, 10 μM ATP, 800 μM target peptide, 25° C.; given as numeric lower bound without unit; read-out: ATR Inhibition Ki.
For `CC(C)S(=O)(=O)c1ccc(-c2cnc3[nH]cc(C(=O)N4CCOc5ccccc5C4)c3n2)cc1` [Compound I-130, 3,5-dihydro-2H-1,4-benzoxazepin-4-yl-[2-(4-isopropylsulfonylphenyl)-5H-pyrrolo[2,3-b]pyrazin-7-yl]methanone], the Ki was greater than 250 nM.

Consider `CC(C)S(=O)(=O)c1ccc(-c2cnc3[nH]cc(C(=O)N4CCNCC4)c3n2)cc1` [Compound I-137, [2-(4-isopropylsulfonylphenyl)-5H-pyrrolo[2,3-b]pyrazin-7-yl]-piperazin-1-yl-methanone], for which the Ki is greater than 250 nM.

`CC(C)S(=O)(=O)c1ccc(-c2cnc3[nH]cc(C(=O)N4CCCN(C)CC4)c3n2)cc1` [Compound I-96, [2-(4-isopropylsulfonylphenyl)-5H-pyrrolo[2,3-b]pyrazin-7-yl]-(4-methyl-1,4-diazepan-1-yl)methanone]: the Ki is greater than 4000 nM.

Take `CC(C)S(=O)(=O)c1ccc(-c2cnc3[nH]cc(C(=O)Nc4cc(C(C)(C)C)on4)c3n2)cc1` [Compound I-133, N-(5-tert-butylisoxazol-3-yl)-2-(4-isopropylsulfonylphenyl)-5H-pyrrolo[2,3-b]pyrazine-7-carboxamide]: the Ki is greater than 40 nM.

In the case of `CC(C)S(=O)(=O)c1ccc(-c2cnc3[nH]cc(C(=O)N4CCCN(C(=O)OC(C)(C)C)CC4)c3n2)cc1` [Compound I-134, tert-butyl 4-[2-(4-isopropylsulfonylphenyl)-5H-pyrrolo[2,3-b]pyrazine-7-carbonyl]-1,4-diazepane-1-carboxylate], the Ki is greater than 40 nM.

Regarding `CC(C)S(=O)(=O)c1ccc(-c2cnc3[nH]cc(C(=O)N(C)c4ccccc4)c3n2)cc1` [Compound I-3, 2-(4-isopropylsulfonylphenyl)-N-methyl-N-phenyl-5H-pyrrolo[2,3-b]pyrazine-7-carboxamide], the Ki was greater than 250 nM.

On to `CC(C)S(=O)(=O)c1ccc(-c2cnc3[nH]cc(C(=O)N4CCCC(N(C)C)C4)c3n2)cc1` (stereo not drawn) [Compound I-98, [3-(dimethylamino)-1-piperidyl]-[2-(4-isopropylsulfonylphenyl)-5H-pyrrolo[2,3-b]pyrazin-7-yl]methanone], for which the Ki was greater than 4000 nM.
